Columns and labels:
PC-3 = experiment: Cytotoxicity against human PC3 cells after 48 hrs by MTT assay; type: functional, cell-based; settings: PC-3, 48 h
A-431 = experiment: Cytotoxicity against human A431 cells after 48 hrs by MTT assay; type: functional, cell-based; settings: A-431, 48 h
A549 = experiment: Cytotoxicity against human A549 cells after 48 hrs by MTT assay; type: functional, cell-based; settings: A549, 48 h
PANC-1 [1] = experiment: Antitumor activity against human PANC1 cells xenografted in po dosed mouse assessed as tumor growth inhibition administered qd for 13 days measured up to 21 days; type: functional, organism-based
PANC-1 [2] = experiment: Antitumor activity against human PANC1 cells xenografted in mouse assessed as tumor growth inhibition at 25 mg/kg, po qd for 13 days measured up to 21 days; type: functional; settings: read-out: TGI
PANC-1 [3] = experiment: Antitumor activity against human PANC1 cells xenografted in mouse assessed as tumor growth inhibition at 5 mg/kg, po qd for 13 days measured up to 21 days; type: functional; settings: read-out: TGI

Row | Compound | IC50 (PC-3) | IC50 (A-431) | IC50 (A549) | TGI (PANC-1 [1]) | inhibition in vivo at 25 mg/kg (PANC-1 [2]) | inhibition in vivo at 5 mg/kg (PANC-1 [3])
1 | C#Cc1cccc(N2C(=O)Cc3cc(OC)cc(OC)c3C2=O)c1 | 28.9 µM | 60.4 µM | > 100 µM | – | – | –
2 | COc1cc2c(c(OC)c1)C(=O)N(c1cccc(C(F)(F)F)c1)C(=O)C2 | 45.3 µM | 62.5 µM | > 100 µM | – | – | –
3 | COc1ccc2c(c1)CC(=O)N(c1ccc3nc(NC(=O)C4CC4)sc3c1)C2=O | 10.5 µM | 12 µM | 20.7 µM | – | – | –
4 | COc1cc2c(c(OC)c1OC)C(=O)N(c1ccc3nc(NC(=O)C4CC4)sc3c1)C(=O)C2 | 20.6 µM | 7.58 µM | 16.2 µM | – | – | –
5 | O=C(Nc1nc2ccc(N3C(=O)Cc4ccc(F)cc4C3=O)cc2s1)C1CC1 | 11.7 µM | 8.64 µM | 12.6 µM | – | – | –
6 | COc1cc2c(c(OC)c1)C(=O)N(c1ccc3nc(NC(C)=O)sc3c1)C(=O)C2 | 11.2 µM | 11.9 µM | 20.5 µM | – | – | –
7 | COc1ccc(N2C(=O)Cc3cc(OC)cc(OC)c3C2=O)cc1 | > 100 µM | 78.9 µM | > 100 µM | – | – | –
8 | COc1cc2c(c(OC)c1)C(=O)N(c1ccc(C)cc1)C(=O)C2 | 21 µM | 47.6 µM | 43.6 µM | – | – | –
9 | O=C(Nc1nc2ccc(N3C(=O)Cc4ccccc4C3=O)cc2s1)C1CC1 | 16.7 µM | 46.8 µM | 22.3 µM | – | – | –
10 | O=C(Nc1ccc2nc(NC(=O)C3CC3)sc2c1)c1c(Cl)cccc1Cl | 2.01 µM | – | 9 µM | – | – | –
11 | COc1cc2c(c(OC)c1)C(=O)N(c1ccc3nc(NC(=O)C4CC4)sc3c1)C(=O)C2 | 7.7 µM | 7.01 µM | 12.7 µM | Dose-dependent effect | 31.5% | 23.7%
12 | COc1cc2c(c(OC)c1)C(=O)N(c1ccc(C(F)(F)F)cc1)C(=O)C2 | 17.1 µM | 32.8 µM | 32.1 µM | – | – | –

— ChEMBL document CHEMBL2429838, “Synthesis and antitumor activity evaluation of 2-arylisoquinoline-1,3(2H,4H)-diones in vitro and in vivo” (Med Chem Res, 2013)
